What was measured:
[1] = target: KIT D816V kinase activity (KIT autophosphorylation at tyrosine 719) in HMC1.2 cells (Homo sapiens (Human), UniProt P10721, D816V/V560G); test: HMC1.2 autophosphorylation assay (phospho-Y719 c-KIT AlphaLISA); type: cell-based; conditions: HMC1.2 mast cell leukemia cell line (KIT V560G, D816V), 90 minutes compound; read-out: INH-KIT-PHOS-HMC1.2
D816V KIT = D816V KIT (Homo sapiens (Human), UniProt P10721, D816V); test: KIT D816V assay at Km (Caliper electrophoretic mobility shift); conditions: biochemical, 15 uM ATP (Km), 90 minutes at 25 C; read-out: INH KIT D816V
Sequence of D816V KIT (P10721 26-976 D816V): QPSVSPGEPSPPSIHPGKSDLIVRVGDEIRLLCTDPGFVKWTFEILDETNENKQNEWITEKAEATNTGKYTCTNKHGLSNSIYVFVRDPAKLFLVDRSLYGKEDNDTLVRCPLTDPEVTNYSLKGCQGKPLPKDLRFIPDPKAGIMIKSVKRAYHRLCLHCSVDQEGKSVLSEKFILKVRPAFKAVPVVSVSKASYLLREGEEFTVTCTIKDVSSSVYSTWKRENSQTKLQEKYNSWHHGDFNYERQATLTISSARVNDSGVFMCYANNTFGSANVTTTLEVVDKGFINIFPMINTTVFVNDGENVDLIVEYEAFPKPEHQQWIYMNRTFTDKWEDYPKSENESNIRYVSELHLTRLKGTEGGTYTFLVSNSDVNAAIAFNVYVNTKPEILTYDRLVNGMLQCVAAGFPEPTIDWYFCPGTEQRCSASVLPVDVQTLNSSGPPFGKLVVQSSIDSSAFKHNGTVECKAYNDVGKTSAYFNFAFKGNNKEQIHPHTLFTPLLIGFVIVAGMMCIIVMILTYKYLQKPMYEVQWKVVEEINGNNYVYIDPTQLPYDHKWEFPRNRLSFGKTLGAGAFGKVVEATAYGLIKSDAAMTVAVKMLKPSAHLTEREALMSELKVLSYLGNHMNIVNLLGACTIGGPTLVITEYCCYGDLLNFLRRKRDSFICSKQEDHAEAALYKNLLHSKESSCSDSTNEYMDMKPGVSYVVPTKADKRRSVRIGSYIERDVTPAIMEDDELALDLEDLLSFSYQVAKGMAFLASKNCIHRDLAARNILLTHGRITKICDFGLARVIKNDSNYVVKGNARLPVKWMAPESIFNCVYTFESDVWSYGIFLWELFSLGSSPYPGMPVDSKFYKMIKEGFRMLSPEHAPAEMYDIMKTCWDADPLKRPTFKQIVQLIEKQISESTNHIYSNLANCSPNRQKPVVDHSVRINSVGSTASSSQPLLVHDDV

Sequence of KIT D816V kinase activity (KIT autophosphorylation at tyrosine 719) in HMC1.2 cells (P10721 26-976 V560G/D816V): as the sequence (P10721 26-976 D816V) above, with V535G counted along it

Structure (SMILES)	IC50 [1]	IC50 (D816V KIT)
C[C@](N)(c1ccccc1)c1cnc(N2CCN(c3ncnn4cc(-c5cn[nH]c5)cc34)CC2)nc1 (single isomer, unassigned) [Compound 12]	< 50 nM	–
CC[C@H](c1ccc(F)cc1)c1cnc(N2CCN(c3ncnn4cc(-c5cnn(C)c5)cc34)CC2)nc1 (single isomer, unassigned) [Compound 40]	100 to 1000 nM	1.01 to 10 nM
Cc1cc(-c2cc3c(N4CCN(c5ncc([C@](C)(O)c6ccc(F)cc6)cn5)CC4)ncnn3c2)no1 (single isomer, unassigned) [Compound 51]	–	10 to 100 nM
Cc1cc(-c2cc3c(N4CCN(c5ncc([C@@](C)(O)c6ccc(F)cc6)cn5)CC4)ncnn3c2)no1 (single isomer, unassigned) [Compound 52]	100 to 1000 nM	1.01 to 10 nM
Cc1nn(C)cc1-c1cc2c(N3CCN(c4ncc([C@](C)(O)c5ccc(F)cc5)cn4)CC3)ncnn2c1 (single isomer, unassigned) [Compound 71]	50 to 100 nM	1.01 to 10 nM
Cc1nn(C)cc1-c1cc2c(N3CCN(c4ncc([C@@](C)(O)c5ccc(F)cc5)cn4)CC3)ncnn2c1 (single isomer, unassigned) [Compound 72]	< 50 nM	< 1 nM
Cn1cc(-c2cn3ncnc(N4CCN(c5ncc(C(C)(O)c6ccc(F)cc6)cn5)CC4)c3c2Cl)cn1 (stereo in doubt) [Compound 107, (S)-1-(2-(4-(5-chloro-6-(1-methyl-1H-pyrazol-4-yl)pyrrolo[1,2-f][1,2,4]triazin-4-yl)piperazin-1-yl)pyrimidin-5-yl)-1-(4-fluorophenyl)ethanol]	1000 to 10000 nM	> 100 nM
Cn1cc(-c2cc3c(N4CCN(c5ccccc5)CC4)ncnn3c2)cn1 [Compound 1]	–	> 100 nM
COc1ccc(-c2cc3c(N4CCN(c5ccccc5)CC4)ncnn3c2)cc1 [Compound 2]	> 10000 nM	> 100 nM
COc1cc(OC)cc(-c2cc3c(N4CCN(c5ccccc5)CC4)ncnn3c2)c1 [Compound 4]	> 10000 nM	> 100 nM
COc1ccc(-c2cc3c(N4CCN(c5ccccc5)CC4)ncnn3c2)cc1OC [Compound 5]	1000 to 10000 nM	10 to 100 nM
CN(C)C(=O)c1ccc(-c2cc3c(N4CCN(c5ccccc5)CC4)ncnn3c2)cc1 [Compound 6]	> 10000 nM	> 100 nM
C[C@@H]1CN(c2ncnn3cc(-c4cnn(C)c4)cc23)CCN1c1ncc(Cc2ccccc2)cn1 [Compound 8]	100 to 1000 nM	1.01 to 10 nM
Cn1cc(-c2cc3c(N4CCN(c5ccc(C(O)c6ccccc6)cn5)CC4)ncnn3c2)cn1 (centres unmarked) [Compound 11]	100 to 1000 nM	1.01 to 10 nM
Cn1cc(-c2cc3c(N4CCN(c5ncc([C@H](N)c6ccccc6)cn5)CC4)ncnn3c2)cn1 [Compound 13, (R)-(2-(4-(6-(1-methyl-1H-pyrazol-4-yl)pyrrolo[2,1-f][1,2,4]triazin-4-yl)piperazin-1-yl)pyrimidin-5-yl)(phenyl)methanamine]	100 to 1000 nM	1.01 to 10 nM
Cn1cc(-c2cc3c(N4CCN(c5ncc(Oc6ccc(F)cc6)cn5)CC4)ncnn3c2)cn1 [Compound 15]	100 to 1000 nM	10 to 100 nM
N#Cc1ccc(-c2cc3c(N4CCN(c5ncc(Cc6ccccc6)cn5)CC4)ncnn3c2)cc1 [Compound 16]	100 to 1000 nM	1.01 to 10 nM
Cc1c(-c2cc3c(N4CCN(c5ncc(Cc6ccccc6)cn5)[C@H](C)C4)ncnn3c2)cnn1C [Compound 19]	100 to 1000 nM	1.01 to 10 nM
C=C(c1ccc(F)cc1)c1cnc(N2CCN(c3ncnn4cc(-c5cnn(C)c5)cc34)CC2)nc1 [Compound 23]	100 to 1000 nM	10 to 100 nM
Cn1cc(-c2cc3c(N4CCN(c5ncc([C@](C)(O)c6ccccc6)cn5)CC4)ncnn3c2)cn1 [Compound 24]	100 to 1000 nM	1.01 to 10 nM
Cn1cc(-c2cc3c(N4CCN(c5ncc([C@@](C)(O)c6ccccc6)cn5)CC4)ncnn3c2)cn1 [Compound 25]	< 50 nM	< 1 nM
Cn1cc(-c2cc3c(N4CCN(c5ncc([C@@H](N)c6ccc(F)cc6)cn5)CC4)ncnn3c2)cn1 [Compound 27]	< 50 nM	1.01 to 10 nM
Cn1cc(-c2cc3c(N4CCN(c5ncc([C@H](N)c6ccc(F)cc6)cn5)CC4)ncnn3c2)cn1 [Compound 28]	< 50 nM	1.01 to 10 nM
Cn1cc(-c2cc3c(N4CCN(c5ncc([C@@H](O)c6ccc(F)cc6)cn5)CC4)ncnn3c2)cn1 [Compound 31]	< 50 nM	1.01 to 10 nM
Cn1cc(-c2cc3c(N4CCN(c5ncc([C@H](O)c6ccc(F)cc6)cn5)CC4)ncnn3c2)cn1 [Compound 32]	< 50 nM	1.01 to 10 nM
NC(=O)c1ccc(-c2cc3c(N4CCN(c5ncc(Cc6ccccc6)cn5)CC4)ncnn3c2)cc1 [Compound 33]	100 to 1000 nM	1.01 to 10 nM
CN(C)[C@@H](c1ccccc1)c1cnc(N2CCN(c3ncnn4cc(-c5cnn(C)c5)cc34)CC2)nc1 [Compound 36, (S)—N,N-dimethyl-1-(2-(4-(6-(1-methyl-1H-pyrazol-4-yl)pyrrolo[2,1-f][1,2,4]triazin-4-yl)piperazin-1-yl)pyrimidin-5-yl)-1-phenylmethanamine]	100 to 1000 nM	1.01 to 10 nM

Structure (SMILES)	IC50 [1]	IC50 (D816V KIT)
CN(C)[C@H](c1ccccc1)c1cnc(N2CCN(c3ncnn4cc(-c5cnn(C)c5)cc34)CC2)nc1 [Compound 37]	1000 to 10000 nM	10 to 100 nM
Cn1cc(-c2cc3ncnc(N4CCN(c5ncc(C(C)(C)c6ccc(F)cc6)cn5)CC4)n3n2)cn1 [Compound 42]	1000 to 10000 nM	10 to 100 nM
Cn1cc(-c2cc3c(N4CCN(c5ncc([C@@](C)(O)c6ccccc6F)cn5)CC4)ncnn3c2)cn1 [Compound 47]	< 50 nM	< 1 nM
Cn1cc(-c2cc3c(N4CCN(c5ncc([C@](C)(O)c6ccccc6F)cn5)CC4)ncnn3c2)cn1 [Compound 48]	< 50 nM	1.01 to 10 nM
Cn1cc(-c2cc3c(N4CCN(c5ncc([C@@H](CO)c6ccc(F)cc6)cn5)CC4)ncnn3c2)cn1 [Compound 49]	< 50 nM	< 1 nM
Cn1cc(-c2cc3c(N4CCN(c5ncc([C@H](CO)c6ccc(F)cc6)cn5)CC4)ncnn3c2)cn1 [Compound 50]	< 50 nM	1.01 to 10 nM
Cn1cc(-c2cc3c(N4CCN(c5ncc([C@](C)(O)c6ccc(F)cn6)cn5)CC4)ncnn3c2)cn1 [Compound 53]	1000 to 10000 nM	10 to 100 nM
Cn1cc(-c2cc3c(N4CCN(c5ncc([C@@](C)(O)c6ccc(F)cn6)cn5)CC4)ncnn3c2)cn1 [Compound 54]	100 to 1000 nM	1.01 to 10 nM
C[C@@H]1CN(c2ncnn3cc(-c4cnn(C)c4)cc23)CCN1c1ncc(Sc2ccccc2F)cn1 [Compound 55]	100 to 1000 nM	10 to 100 nM
Cn1cc(-c2cc3c(N4CCN(c5ncc(Sc6ccccc6F)c(N)n5)CC4)ncnn3c2)cn1 [Compound 56]	< 50 nM	< 1 nM
Cc1ccc(-c2cc3c(N4CCN(c5ncc([C@@](C)(O)c6ccc(F)cc6)cn5)CC4)ncnn3c2)cc1 [Compound 59]	100 to 1000 nM	10 to 100 nM
Cc1ccc(-c2cc3c(N4CCN(c5ncc([C@@](C)(O)c6ccc(F)cc6)cn5)CC4)ncnn3c2)cn1 [Compound 60]	< 50 nM	1.01 to 10 nM
Cn1cc(-c2cc3c(N4CCN(c5ncc(C6(c7ccc(F)cc7)COC6)cn5)CC4)ncnn3c2)cn1 [Compound 61]	100 to 1000 nM	1.01 to 10 nM
CCn1cc(-c2cc3c(N4CCN(c5ncc([C@@](C)(N)c6ccc(F)cc6)cn5)CC4)ncnn3c2)cn1 [Compound 63]	< 50 nM	< 1 nM
C[C@@](O)(c1ccc(F)cc1)c1cnc(N2CCN(c3ncnn4cc(-c5ccc(F)cc5)cc34)CC2)nc1 [Compound 64]	100 to 1000 nM	10 to 100 nM
C[C@](O)(c1ccc(F)cc1)c1cnc(N2CCN(c3ncnn4cc(-c5cccc(F)c5)cc34)CC2)nc1 [Compound 66]	100 to 1000 nM	1.01 to 10 nM
CO[C@@](C)(c1ccc(F)cc1)c1cnc(N2CCN(c3ncnn4cc(-c5cnn(C)c5)cc34)CC2)nc1 [Compound 67]	100 to 1000 nM	10 to 100 nM
CC[C@](O)(c1ccc(F)cc1)c1cnc(N2CCN(c3ncnn4cc(-c5cnn(C)c5)cc34)CC2)nc1 [Compound 69]	100 to 1000 nM	1.01 to 10 nM
CC[C@@](O)(c1ccc(F)cc1)c1cnc(N2CCN(c3ncnn4cc(-c5cnn(C)c5)cc34)CC2)nc1 [Compound 70]	< 50 nM	1.01 to 10 nM
C[C@@H](c1ccc(F)cc1)c1cnc(N2CCN(c3ncnn4cc(-c5cnn(C)c5)cc34)C[C@H]2CO)nc1 [Compound 73]	< 50 nM	1.01 to 10 nM
C[C@H](c1ccc(F)cc1)c1cnc(N2CCN(c3ncnn4cc(-c5cnn(C)c5)cc34)C[C@H]2CO)nc1 [Compound 74]	50 to 100 nM	1.01 to 10 nM
CCn1cc(-c2cc3c(N4CCN(c5ncc([C@@](C)(O)c6ccc(F)cc6)cn5)CC4)ncnn3c2)cn1 [Compound 75]	< 50 nM	< 1 nM
Cc1cc(F)ccc1[C@](C)(O)c1cnc(N2CCN(c3ncnn4cc(-c5cnn(C)c5)cc34)CC2)nc1 [Compound 80]	–	10 to 100 nM
Cc1ccc(-c2cc3c(N4CCN(c5ncc([C@](C)(O)c6ccc(F)cc6)cn5)CC4)ncnn3c2)s1 [Compound 81]	1000 to 10000 nM	10 to 100 nM
Cc1ccc(-c2cc3c(N4CCN(c5ncc([C@@](C)(O)c6ccc(F)cc6)cn5)CC4)ncnn3c2)s1 [Compound 82]	100 to 1000 nM	10 to 100 nM
Cn1cc(-c2cc3c(N4CCN(c5ncc([C@@](C)(O)c6ccc(Cl)cc6)cn5)CC4)ncnn3c2)cn1 [Compound 83]	< 50 nM	< 1 nM
Cn1cc(-c2cc3c(N4CCN(c5ncc([C@@](C)(N)c6ccc(F)cc6F)cn5)CC4)ncnn3c2)cn1 [Compound 85]	< 50 nM	< 1 nM
